# Entries after “also recorded” stand apart in the source; their conditions may differ.
# Experiments:
# Balb/c mice [1] = test: Animal transfection of lipid nanoparticles, in vivo imaging after 12 h; conditions: for Multiple of local photon intensity in the supine position relative to MC3 / Multiple of photon intensity of the viscera in the supine position relative to MC3: Table 8, 0.1 mg/kg FFluc mRNA, 12 h; for Multiple of local photon intensity in the supine position relative to MC3: injection site; for Multiple of photon intensity of the viscera in the supine position relative to MC3: viscera (liver); for toxic and side effect on the liver: inferred from expression in the liver 12 h after administration
# Description: (§1) Balb/c mice (available from Vital River Laboratory Animal Technology Co., Ltd., male, 6-8 weeks old, 20-24 g) were randomized into groups, 5 mice per group. The mice were injected the prepared lipid nanoparticles into the leg muscle at a dose of 0.1 mg/kg (calculated as to FFluc mRNA (SEQ ID NO.1)) and observed by in vivo imaging after 12 h. The injection sites on the bellies and legs of Balb/c mice were depilated, and after anesthesia, the animals were injected D-luciferin potassium salt intraperitoneally, and were observed and photographed in an IVIS living body imager (PerkinElmer, Series III), wherein the observation time of living body images was within 15 min after the injection of substrate. Table 7. Results of animal transfection efficiency of lipid nanoparticles made from different cationic lipids
# Balb/c mice [2] = test: Animal transfection of lipid nanoparticles, in vivo imaging after 24 h; conditions: leg muscle injection, 0.1 mg/kg FFluc mRNA; for Multiple of total photon intensity in the supine position relative to MC3: Table 5, Balb/c mice; for Multiple of local photon intensity in the supine position relative to MC3: Table 5, injection site
# Description: as §1, with “24” for “12”, “5.” for “7.”
SMILES,Multiple of local photon intensity in the supine position relative to MC3 (Balb/c mice [1]; 0.1 mg/kg),Multiple of photon intensity of the viscera in the supine position relative to MC3 (Balb/c mice [1]),toxic and side effect on the liver (Balb/c mice [1]),Multiple of total photon intensity in the supine position relative to MC3 (Balb/c mice [2]),Multiple of local photon intensity in the supine position relative to MC3 (Balb/c mice [2]),Multiple of local photon intensity in the supine position relative to MC3 (Balb/c mice [1])
CCCCCCCCC(CCCCCCCC)OC(=O)CCCCC(=O)OCC(CN(C)CCN1CCCC1)OC(=O)CCCCC(=O)OC(CCCCCCCC)CCCCCCCC (stereo not drawn) [Compound 18],equivalent; also recorded: not weaker than that of MC3 LNP,almost have no expression in the liver,completely avoid liver toxicity; also recorded: completely avoid the toxic and side effect on the liver,–,–,–
CCCCCCCCC(CCCCCC)C(=O)OCC(CN(C)CCN1CCCC1)OC(=O)C(CCCCCC)CCCCCCCC (stereo not drawn) [Compound 1],–,–,–,1.668,significantly higher,not weaker than that of MC3 LNP
CCCCCCCCC(CCCCCC)C(=O)OCC(CN(C)CCN1CCN(C)CC1)OC(=O)C(CCCCCC)CCCCCCCC (stereo not drawn) [Compound 2],–,–,–,equivalent,significantly higher,not weaker than that of MC3 LNP
CCCCCCCCC(CCCCCCCC)OC(=O)CCCCC(=O)OCC(CN(C)CCN1CCN(C)CC1)OC(=O)CCCCC(=O)OC(CCCCCCCC)CCCCCCCC (stereo not drawn) [Compound 17],equivalent; also recorded: not weaker than that of MC3 LNP,almost have no expression in the liver,completely avoid liver toxicity; also recorded: completely avoid the toxic and side effect on the liver,–,–,–

# Reference: patent EP4603481A1, “PREPARATION AND USE OF CATIONIC LIPID MATERIAL” (Nanjing Geneleap Biotechnology Co., Ltd., priority 2022, dated 2024)
